According to ChEMBL document CHEMBL6109107, “Exploring the broad-spectrum activity of carbohydrate-based Iberin analogues: From anticancer effect to antioxidant properties” (Eur J Med Chem, 2025):
Activity calls are given as the source filed them. The calls are words filed in the database; no cut-off is given here.

Experiments:
[1] = Selectivity index, ratio of IC50 for human HaCaT cells to IC50 for human T24 cells; assay type: toxicity; details: HaCaT cells versus T24 cells, read-out: Ratio IC50
[2] = Selectivity index, ratio of IC50 for human HaCaT cells to IC50 for human A549 cells; assay type: toxicity; details: HaCaT cells versus A549 cells, read-out: Ratio IC50
[3] = Selectivity index, ratio of IC50 for human HaCaT cells to IC50 for human MeWo cells; assay type: toxicity; details: HaCaT cells versus MeWo cells, read-out: Ratio IC50
A549 [4] = assay: Cytotoxicity against human A549 cells assessed as reduction in cell viability incubated for 72 hrs by resazurin dye based assay; assay type: functional; details: A549, 72 h
MeWo = assay: Cytotoxicity against human MeWo cells assessed as reduction in cell viability incubated for 72 hrs by resazurin dye based assay; assay type: functional
Arec32 [5] = assay: Induction of Nrf2 activity in human Arec32 cells assessed as drug concentration required to double luciferase expression incubated for 24 hrs by luminescence based plate reader analysis; assay type: cell-based; details: filed as activator
T-24 = assay: Cytotoxicity against human T24 cells assessed as reduction in cell viability incubated for 72 hrs by resazurin dye based assay; assay type: functional; details: T-24, 72 h
A549 [6] = assay: Cytotoxicity against human A549 cells assessed as inhibition of cell growth incubated for 72 hrs by MTT assay; assay type: functional, cell-based; details: A549, 72 h
[7] = Cytotoxicity against human HaCaT cells assessed as reduction in cell viability incubated for 72 hrs by resazurin dye based assay; assay type: toxicity
[8] = Cytotoxicity against human Arec32 cells assessed as cell viability by MTT assay; assay type: toxicity, cell-based
Arec32 [9] = assay: Induction of Nrf2 activity in human Arec32 cells assessed as increase in luciferase expression at >30 uM incubated for 24 hrs by luminescence based plate reader analysis; assay type: cell-based

Row | SMILES | selectivity ratio [1] | selectivity ratio [2] | selectivity ratio [3] | IC50 (A549 [4]) [µM] | IC50 (MeWo) [µM] | CD (Arec32 [5]) [µM] | IC50 (T-24) [µM] | IC50 (A549 [6]) [µM] | IC50 at 72 h [7] [µM] | EC50 [8] [µM] | Activity (Arec32 [9])
1 | C[S+]([O-])CCCN=C=S (racemic) | 2.9 | 1.8 | 1 | 20.7 | 32.8 | 3.12 | 12.2 | 30.2 | 33 | > 30 | 
2 | CC(=O)OC[C@H]1O[C@@H](N=C=S)[C@H](OC(C)=O)[C@@H](Sc2ccccc2)[C@@H]1OC(C)=O | 1.2 | 1 | 0.9 | 24.9 | 29.1 |  | 19.4 |  | 23.2 | > 30 | inactive
3 | CC(=O)OC[C@H]1O[C@@H](N=C=S)[C@H](OC(C)=O)[C@@H](S(C)(=O)=O)[C@@H]1OC(C)=O | 2 | 0.6 | 1.2 | 62.8 | 39 | 6.21 | 19.9 |  | 40.1 | > 30 | 
4 | CC(C)(C)c1cc(O)ccc1O [E319] |  |  |  |  |  | 1.68 |  |  |  | > 30 | 
5 | CSCCCN=C=S | 3.2 | 1.7 | 1.5 | 31.1 | 31.6 | 2.94 | 14.4 | 48 | 43.9 | > 30 | 
6 | CCS(=O)(=O)[C@@H]1[C@@H](OC(C)=O)[C@H](N=C=S)O[C@H](COC(C)=O)[C@H]1OC(C)=O | 2 | 0.6 | 1.1 | 54.7 | 33 | 10.4 | 18 |  | 35.2 | > 30 | 
7 | CC(=O)OC[C@H]1O[C@@H](N=C=S)[C@H](OC(C)=O)[C@@H](OC(C)=O)[C@@H]1OC(C)=O | 1.5 | 1.1 | 1.2 | 64.6 | 58.1 |  | 48.7 |  | 71.4 | > 30 | inactive
8 | CC(=O)OC[C@H]1O[C@@H](N=C=S)[C@H](OC(C)=O)[C@@H]([S@@+]([O-])c2ccccc2)[C@@H]1OC(C)=O | 1.1 | 0.8 | 0.9 | 74.9 | 67.5 | 1.55 | 56.7 |  | 59.1 | > 30 | 
9 | CS(=O)(=O)CCCN=C=S | 3.3 | 1.9 | 1.3 | 25.2 | 29.5 | 3.22 | 10.7 |  | 35.9 | > 30 | 
10 | CC[S+]([O-])[C@@H]1[C@@H](OC(C)=O)[C@H](N=C=S)O[C@H](COC(C)=O)[C@H]1OC(C)=O (mixture of isomers) | 1.1 | 0.9 | 1.1 | 155 | 118 | 6.32 | 113 |  | 141 | > 30 | 
11 | CS[C@@H]1[C@@H](OC(C)=O)[C@H](N=C=S)O[C@H](COC(C)=O)[C@H]1OC(C)=O | 1.5 | 0.9 | 1 | 47.9 | 47 |  | 30.9 |  | 45.3 | > 30 | inactive
12 | Nc1ccn([C@@H]2O[C@H](CO)[C@@H](O)C2(F)F)c(=O)n1 [GEMCITABINE] | 4.2 | 2.6 | 1.6 | 3 | 5.2 |  | 2.1 |  | 7.1 |  | 
13 | CC(=O)OC[C@H]1O[C@@H](N=C=S)[C@H](OC(C)=O)[C@@H]([S@+]([O-])c2ccccc2)[C@@H]1OC(C)=O | 1.3 | 1 | 1.1 | 58.9 | 57.4 | 2.09 | 48.9 |  | 61.2 | > 30 | 
14 | CCS[C@@H]1[C@@H](OC(C)=O)[C@H](N=C=S)O[C@H](COC(C)=O)[C@H]1OC(C)=O | 1.5 | 0.9 | 0.9 | 48.8 | 50 |  | 31.5 |  | 46.3 | > 30 | inactive
15 | CC(=O)OC[C@H]1O[C@@H](N=C=S)[C@H](OC(C)=O)[C@@H]([S+](C)[O-])[C@@H]1OC(C)=O (mixture of isomers) | 1.1 | 1 | 1 | 183 | 178 | 5.75 | 159 |  | 180 | > 30 | 
16 | CC(=O)OC[C@H]1O[C@@H](N=C=S)[C@H](OC(C)=O)[C@@H](S(=O)(=O)c2ccccc2)[C@@H]1OC(C)=O | 1.6 | 0.7 | 1.2 | 40.3 | 22.9 | 2.09 | 16.8 |  | 27.5 | > 30 | 
